Experimental data as given in article PMC7666214, “Kinetic insights into the peroxygenase activity of cellulose-active lytic polysaccharide monooxygenases (LPMOs)” (Nature Communications, 2020).

Molecular target: T1, HRP (Armoracia rusticana, UniProt P00433)
T1 construct: gene PRXC1A; commercial horseradish peroxidase, used as purchased
T1 sequence (P00433 31-338): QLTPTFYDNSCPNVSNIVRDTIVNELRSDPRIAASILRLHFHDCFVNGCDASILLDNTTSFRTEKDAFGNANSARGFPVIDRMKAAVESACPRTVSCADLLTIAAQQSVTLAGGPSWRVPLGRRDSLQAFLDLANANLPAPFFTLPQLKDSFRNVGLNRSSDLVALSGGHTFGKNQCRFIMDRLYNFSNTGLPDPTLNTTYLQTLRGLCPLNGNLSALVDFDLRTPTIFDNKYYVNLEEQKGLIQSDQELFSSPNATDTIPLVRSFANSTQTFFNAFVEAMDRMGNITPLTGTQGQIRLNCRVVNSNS
Test: absorbance at […] nm (resorufin)
Assay type: biochemical
Details: H2O2 co-substrate, Bis-Tris 50 mM pH 6.1, 25 °C; ping-pong

SMILES: CC(=O)N1c2ccc(O)cc2Oc2cc(O)ccc21 [AR, N-acetyl-3,7-dihydroxyphenoxazine]
- absorbance at 570 nm (resorufin): The kinetics of HRP with the AR substrate was consistent with the ping-pong mechanism
